Test [1] can be described thus: Inhibition of hexa-His-tagged PAI-1 N152H/K156T/Q321L/M356I mutant (unknown origin) expressed in Escherichia coli BL21(DE3) after 10 mins by uPA-based assay. Further details: species or system Homo sapiens.
For test [2], the species on record is Homo sapiens. The experiment in a line: Ratio of embelin IC50 to compound IC50 for hexa-His-tagged PAI-1 N152H/K156T/Q321L/M356I mutant (unknown origin) expressed in Escherichia coli BL21(DE3).
For test [3], the species on record is Homo sapiens. The experiment in a line: Inhibition of hexa-His-tagged PAI-1 N152H/K156T/Q321L/M356I mutant (unknown origin) expressed in Escherichia coli BL21(DE3) at 100 uM after 10 mins by uPA-based assay.

Active and inactive are the calls of the source. No cut-off for these calls is given here.

From ChEMBL document CHEMBL3259521, “Design, synthesis, and SAR of embelin analogues as the inhibitors of PAI-1 (plasminogen activator inhibitor-1)” (Bioorg Med Chem Lett, 2014) come the findings set out here.

By IC50 is commonly meant the concentration at which inhibition is half-maximal. A lower IC50 goes with greater potency in that assay.

For `CCCCCCCCCC1=C(O)C(=O)C(CCCC)=C(O)C1=O`, inhibition in test [1] was half-maximal at 0.18 µM (IC50). Further, in the test listed under Homo sapiens [2], the Ratio IC50 came out at 27.
Turning to `CCCCCCCCCCCC1=C(O)C(=O)C=C(O)C1=O` [EMBELIN], it took 4.94 µM to reach half-maximal inhibition in test [1] (IC50).
Still for that read-out and setting: for `CCCCCCCCC1=C(O)C(=O)C=C(O)C1=O` the value was 1.87 µM.
On to `CCCCCCCCCCCC1=C(OC)C(=O)C=C(OC)C1=O`, for which the inhibition result in the test filed under Homo sapiens [3] is “inactive”.
`CCCCCC1=C(O)C(=O)C(CCCCC)=C(O)C1=O` displayed a concentration for half-maximal inhibition (IC50) in test [1] of 0.92 µM. In addition, in the test filed under Homo sapiens [2], the Ratio IC50 was found to be 5.
Regarding `CCCCCCCCC1=C(O)C(=O)C(CCCCCCCC)=C(O)C1=O`, the concentration for half-maximal inhibition (IC50) in test [1] came out at 0.89 µM. For the same compound, the Ratio IC50 in the test listed under Homo sapiens [2] turned out to be 5.
Take `CCCCCCCC1=C(O)C(=O)C=C(O)C1=O`: the IC50 in test [1] was determined as 3.87 µM.
On the same count and under the same terms, for `CCCCCCCCCCCC1=C(O)C(=O)C=C(OC)C1=O` [5-O-METHYLEMBELIN] the value was 90.2 µM.
In test [1], `C=CCC1=C(O)C(=O)C(CCCCCCCCC)=C(O)C1=O` displayed an IC50 of 0.75 µM. Moreover, in the test listed under Homo sapiens [2], the Ratio IC50 was determined as 6.5.
`CCCC1=C(O)C(=O)C(CCC)=C(O)C1=O`: the IC50 in test [1] worked out at 5.68 µM.
`CCCCCCCCCC1=C(O)C(=O)C(Cc2ccccc2)=C(O)C1=O` yielded an IC50 in test [1] of 0.77 µM. In addition, in the test listed under Homo sapiens [2], the Ratio IC50 is 6.5.
In test [1], `CCCCC1=C(O)C(=O)C(CCCC)=C(O)C1=O` gave an IC50 of 7.11 µM.
In turn, `CCCCCCC1=C(O)C(=O)C(CCCCCC)=C(O)C1=O` registered a half-maximal inhibitory concentration (IC50) in test [1] of 0.58 µM. For the same compound, the Ratio IC50 in the test listed under Homo sapiens [2] amounted to 9.
On the same counts, the results for `CCCCCCCCCC1=C(O)C(=O)C(CCCCCCC)=C(O)C1=O` are 0.95 µM and 5.
`CCCCCCC1=C(O)C(=O)C=C(O)C1=O` had an IC50 in test [1] of 4.18 µM.
The same measure, in the same setting: for `CCCCCCCCCC1=C(O)C(=O)C=C(O)C1=O` the value was 1.78 µM.
For the compound `CCCCCCCCCC1=C(O)C(=O)C(CCCCC)=C(O)C1=O`, the half-maximal inhibitory concentration (IC50) in test [1] was determined as 0.63 µM. In the test listed under Homo sapiens [2], the Ratio IC50 was 8.
Turning to `CCCCCC1=C(O)C(=O)C=C(O)C1=O`, inhibition in test [1] was half-maximal at 4.56 µM (IC50).
For `CCCCCCCC1=C(O)C(=O)C(CCCCCCC)=C(O)C1=O`, the IC50 in test [1] came out at 0.51 µM. The Ratio IC50 in the test filed under Homo sapiens [2] amounted to 10.
`CCCCCCCCCC1=C(O)C(=O)C(CCC)=C(O)C1=O`: the concentration for half-maximal inhibition (IC50) in test [1] turned out to be 0.38 µM. The Ratio IC50 in the test listed under Homo sapiens [2] came out at 13.
